Data: patent US7652031B2, “Compounds which mimic the chemical and biological properties of discodermolide” (priority 2001, dated 2010)
Where two headings read alike, the source gives them in different places.

Assays:
[1] = system: microtubule protein (MTP); assay: In vitro tubulin polymerization assay (turbidity at 350 nm); format: biochemical, calf; conditions: for induction of tubulin assembly in the absence of GTP / extent of polymerization after 100 min / initial slope (0-5 min), slope for (+)-discodermolide assigned 1.0: 10 μM; for induction of tubulin assembly in the absence of GTP: 37° C.; for extent of polymerization after 100 min: turbidity; for initial slope (0-5 min), slope for (+)-discodermolide assigned 1.0: first 5 min, relative to (+)-discodermolide; for stability of the microtubules formed against calcium-induced depolymerization: microtubules formed in the presence of the compound
Method: (§1) All drugs were dissolved in sterile DMSO and stored at −20° C. Microtubule protein (MTP) was purified by 2 cycles of temperature-dependent assembly-disassembly from calf brain and stored in liquid nitrogen. See, for example, Welsenberg, R. C., “Microtubule formation in vitro in solutions containing low calcium concentrations”, Science, 1972, 177, 1104-1105.
Microtubule polymerization was evaluated by recording the change in turbidity of MTP at 350 nm for 100 min in a spectrophotometer (UVIKON, Research Instruments Int., San Diego, Calif.). See, for example, Shelanski, M. L., et al., “Microtuble assembly in the absence of added nucleotides”, Proc. Natl. Acad. Sci. USA, 1973, 70, 765-768. Purified MTP was diluted in assembly buffer containing 0.1 M MES, I mM EGTA, 0.5 mM MgCl2, and 3 M glycerol (pH 6.6) to a final concentration of 1 mg/ml. All compounds were evaluated at a concentration of 10 μM at 37° C. in the absence of GTP. The changes in absorption that occurred during the first 5 min were used to plot initial slopes from the linear portion of each curve in order to compare the initial activity of each compound.
The activities of Taxol, (+)-discodermolide, and several structural analogs were determined in the foregoing in vitro tubulin polymerization assay that measures changes in absorbance that correlate with the extent of microtubule polymerization. It will be appreciated that microtubule polymerization involves both nucleation (initiation) and elongation steps. The initial rates of polymerization reflect the nucleation process. See, for example, Gaskin, F., et al. “Turbidimetric studies of the in vitro assembly and disassembly of porcine neurotubules”, J. Mol. Biol., 1974, 89, 737-758.

[2] = system: microtubule protein (MTP); assay: Electron microscopy of microtubules from the in vitro polymerization assay; format: biochemical, calf; conditions: for Average Polymer Length (μm): microtubule lengths after assembly, minimum of 50 microtubules
Method: Aliquots (50 μL) were taken from the in vitro polymerization assay at the end of the reaction and placed onto 300-mesh carbon-coated, Formavar-treated copper grids. Samples were then stained with 20 μL of 2% uranyl acetate and viewed with a JEOL model 100CX electron microscope. To determine the lengths of the microtubules, electron micrograph negatives were scanned and then analyzed using IP Lab software. Measurements were performed on negatives at ×10000 and ×50000, with a minimum of 50 microtubules measured for each compound.
The microtubule protein from each in vitro assay was examined by electron microscopy to confirm that normal microtubules were formed in the presence of the compounds. In all cases, except for the DMSO control, microtubules were observed. […] Table 1 provides a comparison of microtubule lengths after assembly with Taxol, discodermolide and analogs I-i, I-ii, I-iii, and I-iv.

microtubules = assay: Drug binding competition assay ([3H]Taxol binding to preformed microtubules); set-up: species or system calf
Method: as §1
The assay was performed using methods described in Bollag, D. M., et al., “Epothilones, a new class of microtubule-stabilizing agents with a Taxol-like mechanism of action”, Cancer-Res., 1995, 55, 2325-2333 and He, L., et al., “A common pharmacophore for Taxol and the epothilones based on the biological activity of a taxane molecule lacking a C-13 side chain”, Biochemistry, 2000, 39, 3972-3978. MTP (0.4 mg/ml) was incubated at 37° C. with 1 mM GTP and […] Taxol for 20 min to induce the assembly of microtubules. One hundred nanomolar [^3H]Taxol (specific activity: 19.3 Ci/mmol) and the indicated concentration of the competing agent were added simultaneously to the preformed microtubules. The mixtures were further incubated at 37° C. for 30 min to allow binding of [^3H]Taxol. Microtubules were collected by ultracentrifugation (100,000 g, 1 hr, 30° C.) and the radioactivity measured using a liquid scintillation counter. The inhibition of binding of [^3H]Taxol to microtubules was expressed as a percentage compared to the control (100%).

A549 cells [3] = assay: Immunofluorescence (microtubules, DNA), A549 cells; format: cell-based, human
Method: In addition, cells were stained with Hoescht solution (Sigma; 1:2.5 dilution) for 15 min after the secondary antibody wash. Slides were analyzed using a Zeiss Axiophot microscope (rhodamine and DAPI filters) at ×100 magnification.

A549 cells [4] = assay: Cytotoxicity assay, A549 cells; format: cell-based, human
Method: The A549 lung carcinoma cell line was maintained as described in Kavallaris, M., et al., “Taxol-resistant epithelial ovarian tumors are associated with altered expression of specific β-tubulin isotypes”, J. Clin. Invest., 1997, 100, 1282-1293.
(§2) A549 cells were seeded in triplicate at a density of 1×10^4 cells/ml in 6-well plates and allowed to attach for 24 h. After incubation with various drug concentrations for 72 h, adherent cells were trypsinized and counted (Coulter Counter model Z1; Coulter Corp., Miami, Fla.), and the IC50 was determined. SKOV3 cells were seeded at a density of 2×10^4 cells/ml and the above procedure followed.

SKOV3 cells = assay: Cytotoxicity assay, SKOV3 cells; format: cell-based, human
Method: The SKOV3 ovarian carcinoma cell line was obtained from Dr. V. Ling and was maintained as described in McDaid, H. M., et al., “Structure-activity profiles of eleutherobin analogs and their cross-resistance in Taxol-resistant cell lines”, Cancer Chemother. Pharmacol., 1999, 44, 131-137.
as §2

A549 cells [5] = assay: Flow cytometry (cell cycle), A549 cells; format: cell-based, human; conditions: 24 h
murine splenocytes [6] = conditions: in vitro; cited from earlier work
murine splenocytes [7] = conditions: in vitro, cited from earlier work
F1 recipient mice = conditions: cited from earlier work
tubulin [8] = conditions: cited from earlier work
tubulin [9] = conditions: cited from earlier work; remark: listed apart in the source
MCF-7 cells = conditions: cited from earlier work
[10] = system: human carcinoma cell lines; conditions: in cells; cited from earlier work
[11] = (+)-discodermolide 25 nM, analogs at different cytotoxic concentrations

Structure (SMILES): CC(=O)O[C@H]1C(=O)[C@@]2(C)[C@H]([C@H](OC(=O)c3ccccc3)[C@]3(O)C[C@H](OC(=O)[C@H](O)[C@@H](NC(=O)c4ccccc4)c4ccccc4)C(C)=C1C3(C)C)[C@]1(OC(C)=O)CO[C@@H]1C[C@@H]2O [Taxol]
- induction of tubulin assembly in the absence of GTP [1]: induced tubutin assembly in the absence of GTP
- extent of polymerization after 100 min [1]: essentially the same
- initial slope (0-5 min), slope for (+)-discodermolide assigned 1.0 [1]: 0.28
- stability of the microtubules formed against calcium-induced depolymerization [1]: stable against calcium-induced depolymerzation
- Average Polymer Length (μm) [2]: 3.3 ± 1.2 μm
- inhibition of binding of [3H]Taxol to microtubules (microtubules; 1 μM competing agent): very similar inhibition
- inhibition of binding of [3H]Taxol to microtubules (microtubules; 10 μM competing agent): approximately 45%
- inhibition of binding of [3H]Taxol to microtubules (microtubules; 100 μM competing agent): 80%
- location of microtubule bundles in the cells (A549 cells [3]): throughout the cells

Structure (SMILES): C=C/C=C\[C@H](C)[C@H](OC(N)=O)[C@@H](C)[C@H](O)[C@@H](C)C/C(C)=C\[C@H](C)[C@@H](O)[C@@H](C)/C=C\[C@@H](O)C[C@@H]1OC(=O)[C@H](C)[C@@H](O)[C@H]1C (single isomer, unassigned) [(+)-discodermolide]
- induction of tubulin assembly in the absence of GTP [1]: induced tubutin assembly in the absence of GTP
- extent of polymerization after 100 min [1]: essentially the same
- initial slope (0-5 min), slope for (+)-discodermolide assigned 1.0 [1]: 1.0
- level of polymerization by protein content in the supernatant ([1]; end of assay, 100,000 g for 30 min): comparable
- stability of the microtubules formed against calcium-induced depolymerization [1]: stable against calcium-induced depolymerzation
- microtubule length compared with GTP or Taxol ([2]; electron microscopy): much shorter microtubules
- Average Polymer Length (μm) [2]: 0.78 ± 0.3 μm
- inhibition of binding of [3H]Taxol to microtubules (microtubules; 1 μM competing agent): very similar inhibition
- inhibition of binding of [3H]Taxol to microtubules (microtubules; 10 μM competing agent): approximately 45%
- inhibition of binding of [3H]Taxol to microtubules (microtubules; 100 μM competing agent): ~95%
- inhibition of the proliferation of A549 cells (A549 cells [4]): inhibited the proliferation of A549 cells
- IC50 (A549 cells [4]; Homo sapiens, A549, 72 h, read-out: A549 (IC50(μm))): 3.8 nM
- IC50 (SKOV3 cells; Homo sapiens, SK-OV-3, 72 h, read-out: SKOV3 (IC50(μm))): 31.3 ± 6.8 nM
- less active in SKOV3 compared to A549 cells (SKOV3 cells; SKOV3 vs A549): approximately 8 fold
- hypodiploid population of cells (apoptosis) (A549 cells [5]; 25 nM): increase in the hypodiploid population of cells
- cell cycle block in G2/M phase (A549 cells [5]; [11]): blocked in the G2/M phase of the cell cycle
- location of microtubule bundles in the cells (A549 cells [3]): at the periphery of the cells
- microtubule bundles and condensed nuclear DNA (A549 cells [3]; [11]): Microtubule bundles and condensed nuclear DNA appeared
- concentrations at which bundles and condensed DNA were not seen (A549 cells [3]; effect seen at 25 nM and above): below 12 nM
- suppression of the two-way mixed-lymphocyte reaction (murine splenocytes [6]): suppresses
- suppression of concanavalin A-induced mitogenesis (murine splenocytes [7]): suppresses
- cytotoxicity associated with the suppression (murine splenocytes [7]; mixed-lymphocyte reaction and mitogenesis assays): no associated cytotoxicity
- potency in graft-vs.-host splenomegaly response (F1 recipient mice; compared with cyclosporin A and FK506): intermediate between those of cyclosporin A and FK506
- suppression of graft-vs.-host splenomegaly response (F1 recipient mice; injection of parental splenocytes into F1 recipient mice): suppresses
- binding affinity compared with Taxol (tubulin [8]; listed as 1): much higher
- binding affinity compared with Taxol (tubulin [8]; listed as (+)-discoderrnolide): higher affinity for tubulin
- potency at nucleating tubulin assembly compared to Taxol (tubulin [9]): more potent
- potency at inducing microtubule bundles compared to Taxol (MCF-7 cells): more potent
- cytotoxicity compared with Taxol [10]: less cytotoxic than Taxol
